Data set [1] relates to GLP-1R. The following applies: GL can also activate GLP-1R; cited from earlier work.
For data set [2] the following is noted: cited from earlier work.
Data set [3] is described as follows: Teduglutide stability in the foam after the gassing process. Type of data set: physicochemical. The following applies: Ted-loaded foam and effervescence-like formulation, n = 3 (Figure S3).

Where two headings read alike, the source gives them in different places.

Glepaglutide: in data set [1], the “binding affinity at GLP-1R” value is recorded as “low binding affinity”. Also, the elimination half-life result in data set [2] (in humans) is on record as “up to 50 h”.

Take Glucagon-like peptide 2 [GLP-2]: in data set [2] (native GLP-2, healthy individuals, breakdown by DPP-4), the elimination half-life is recorded as 7 min.

On to teduglutide, for which the “stability of Ted after the foaming process (concentration change)” value in data set [3] is on record as “degraded after the foaming process”.

The values above are taken from PMC11912111 (Advanced Healthcare Materials, 2025).
